Data reported in patent publication US20260138970A1, “MODULATORS OF THE CALCIUM SIGNALING CASCADE” (FONDAZIONE TELETHON ETS, priority 2022, published 2026).

Assays:
Type in all cases: cell-based
ITPR3 = target: T1, ITPR3 (Homo sapiens, UniProt Q14573); experiment: Fluo-4 Ca2+ assay, UTP, HEK293 cells with selective expression of ITPR3 (HEKR3); settings: compounds 10 μM; UTP 5 μM; FIG. 2C
T1 construct: host or cells: HEKR3 (HEK293)
Experimental: HEK293 cells totally devoid of ITPR expression (HEK3XKO) or with selective expression of ITPR1 (HEKR1), ITPR2 (HEKR2), or ITPR3 (HEKR3), obtained by selective gene ablation, were purchased from Kerafast (catalog number: EURO30, EURO31, EURO32, EURO33) and cultured in a mixture of Dulbecco's Modified Eagle Medium (DMEM, high glucose version) and Ham's F12 (1:1) and supplemented with 10% fetal bovine serum, 2 mM L-glutamine, 100 U/ml penicillin and 100 μg/ml streptomycin.
Experiments were performed using the microplate reader described for the HS-YFP assay. FRT and HEK293 cells were cultured until confluence in 96-well microplates (3603, Corning). Cells were washed 2 times with PBS (150 μl/wash) and then loaded for 1 h at 37° C. with 5 μM Fluo-4/AM (Thermo Fisher Scientific; catalog number: F23917) in PBS containing 10 mM glucose, 0.5 mM sulfinpyrazone, and 1% fetal bovine serum. After loading, cells were washed 2 times with PBS-glucose-sulfinpyrazone (150 μl/wash) and incubated for 20 min at 37° C. with 60 μl of PBS plus 10 mM glucose and 0.5 mM sulfinpyrazone containing compounds of interest at 10 μM final concentration or vehicle. Each well was assayed individually. Fluo-4 fluorescence (500 nm excitation, 535 nm emission) was detected every 200 ms for 16-40 s. Two seconds after the start of fluorescence recording, the reader automatically injected 165 μl of a modified PBS containing 136 mM KCl instead of NaCl. This solution also contained 10 mM glucose, 0.5 mM sulfinpyrazone, and UTP or SLIGR-NH2 (CAS #171436-38-7) at a final concentration that depended on the specific cell type. For UTP we used: 0.25 μM for FRT; 1 μM for HEKR2; 5 μM for HEK3XKO, HEKR1, and HEKR3. For SLIGR-NH2 we used: 10 μM for HEKR1; 4 μM for HEKR2. These concentrations were chosen to elicit ˜20% of maximal effect based on UTP and SLIGR-NH2 dose-response relationships. […] The Fluo-4 fluorescence increase was quantified using a procedure compiled in Microsoft Excel after background subtraction and normalization for the initial value measured before UTP addition.

PLC = PLC assay in FRT cells expressing PH-PLC-GFP sensor; settings: compounds 10 μM, cytosolic GFP increase, FIG. 3; for potentiation of UTP effect on PLC activity, lower UTP concentration: UTP 0.25 μM; for potentiation of UTP effect on PLC activity, higher UTP concentration: UTP 100 μM
Experimental: FRT cells with stable expression of PLC6-PH-GFP, generated in the laboratory of inventors, were cultured up to subconfluent condition in p-Plate96 microplates (Ibidi). Each well of a 96-well microplate was washed 3 times, leaving 125 μl of phosphate-buffered saline (PBS) containing compounds at 10 μM final concentration or vehicle. After 20 min of incubation at 37° C., microplate was moved on the stage of an inverted microscope equipped with GFP excitation/emission filters, 40×oil immersion objective (Olympus, Segrate, Italy), Lambda DG4 illumination system (Sutter Instrument Co., Novato, CA, USA), Prime cmos camera (Photometrics, Tucson, AZ, USA) and MetaMorph imaging acquisition software (Molecular Devices, Sunnyvale, CA, USA). Time-lapse experiments were carried out with 50 ms exposure time, 20 frame/s rate, and 2.4 min total duration. After 20 s and 90 s, UTP 0.25 μM and 100 μM (final concentrations) was respectively added. Analysis was performed with MetaMorph software, by quantifying GFP fluorescence cytoplasmic accumulation in manually selected single cell regions of interest (ROI). After background subtraction, fluorescence recordings were normalized for the initial value.

TMEM16A = experiment: Short-circuit current recordings on human cultured bronchial epithelia, UTP-triggered Cl- secretion; settings: UTP 0.25 μM; ARN7149 10 μM, ARN11391 20 μM, ARN4550 20 μM; amiloride, paxillin, inh-172 present; FIG. 5A
Experimental: Human bronchial epithelial cells (HBECs) were isolated and cultured as reported in a previous study (21; 40). Briefly, HBECs were cultured in flasks in a home-made serum-free medium (21). After four to five passages, cells were seeded at high density (500,000/cm^2) on Snapwell porous insert (cc3801, Corning Costar). After 24 h from seeding, the basolateral medium was replaced with differentiation medium PneumaCult ALI (Stemcell Technologies), whereas the apical medium was totally removed to obtain the air-liquid interface (ALI) condition. Epithelia were kept under this condition for at least 2-3 weeks to achieve mucociliary differentiation.
Snapwell supports (3801, Corning) carrying FRT and differentiated HBEC epithelia were mounted in a vertical chamber resembling an Ussing system with internal fluid circulation (EM-CSYS-8, Physiologic Instruments, San Diego, CA, USA). For FRT epithelia, the apical and basolateral hemichambers were filled with solutions of different composition. The apical solution (5 ml) contained (in mM): 63 NaCl, 63 sodium gluconate, 0.38 KH2PO4, 2.13 K2HPO4, 2 CaCl2, 1 MgSO4, 20 Na-Hepes (pH 7.3), and 10 glucose. The basolateral solution (5 ml) instead contained (in mM): 126 KCl, 0.38 KH2PO4, 2.13 K2HPO4, 1 CaCl2, 1 MgSO4, 20 Na-Hepes (pH 7.3), and 10 glucose. Both solutions were continuously bubbled with air and the temperature of the solution was kept at 37° C. For HBECs, the same (bicarbonate-buffered) solution was used in both chambers. The composition of this solution was (in mM): 126 NaCl, 0.38 KH2PO4, 2.13 K2HPO4, 1 MgSO4, 1 CaCl2), 24 NaHCO3, and 10 glucose. Both sides were continuously bubbled with a gas mixture containing 5% CO2 and 95% air. […]
Transepithelial voltage was short-circuited with a voltage-clamp (VCC MC8, Physiologic Instruments, San Diego, CA, USA) connected to the apical and basolateral chambers via Ag—AgCl electrodes and agar bridges (2% agar in 1 M KCl). […] The resulting short-circuited current from each channel was recorded on a personal computer with the Acquire & Analize 2.3 software (Physiologic Instruments, San Diego, CA, USA).

T1 sequence (Q14573 whole entry): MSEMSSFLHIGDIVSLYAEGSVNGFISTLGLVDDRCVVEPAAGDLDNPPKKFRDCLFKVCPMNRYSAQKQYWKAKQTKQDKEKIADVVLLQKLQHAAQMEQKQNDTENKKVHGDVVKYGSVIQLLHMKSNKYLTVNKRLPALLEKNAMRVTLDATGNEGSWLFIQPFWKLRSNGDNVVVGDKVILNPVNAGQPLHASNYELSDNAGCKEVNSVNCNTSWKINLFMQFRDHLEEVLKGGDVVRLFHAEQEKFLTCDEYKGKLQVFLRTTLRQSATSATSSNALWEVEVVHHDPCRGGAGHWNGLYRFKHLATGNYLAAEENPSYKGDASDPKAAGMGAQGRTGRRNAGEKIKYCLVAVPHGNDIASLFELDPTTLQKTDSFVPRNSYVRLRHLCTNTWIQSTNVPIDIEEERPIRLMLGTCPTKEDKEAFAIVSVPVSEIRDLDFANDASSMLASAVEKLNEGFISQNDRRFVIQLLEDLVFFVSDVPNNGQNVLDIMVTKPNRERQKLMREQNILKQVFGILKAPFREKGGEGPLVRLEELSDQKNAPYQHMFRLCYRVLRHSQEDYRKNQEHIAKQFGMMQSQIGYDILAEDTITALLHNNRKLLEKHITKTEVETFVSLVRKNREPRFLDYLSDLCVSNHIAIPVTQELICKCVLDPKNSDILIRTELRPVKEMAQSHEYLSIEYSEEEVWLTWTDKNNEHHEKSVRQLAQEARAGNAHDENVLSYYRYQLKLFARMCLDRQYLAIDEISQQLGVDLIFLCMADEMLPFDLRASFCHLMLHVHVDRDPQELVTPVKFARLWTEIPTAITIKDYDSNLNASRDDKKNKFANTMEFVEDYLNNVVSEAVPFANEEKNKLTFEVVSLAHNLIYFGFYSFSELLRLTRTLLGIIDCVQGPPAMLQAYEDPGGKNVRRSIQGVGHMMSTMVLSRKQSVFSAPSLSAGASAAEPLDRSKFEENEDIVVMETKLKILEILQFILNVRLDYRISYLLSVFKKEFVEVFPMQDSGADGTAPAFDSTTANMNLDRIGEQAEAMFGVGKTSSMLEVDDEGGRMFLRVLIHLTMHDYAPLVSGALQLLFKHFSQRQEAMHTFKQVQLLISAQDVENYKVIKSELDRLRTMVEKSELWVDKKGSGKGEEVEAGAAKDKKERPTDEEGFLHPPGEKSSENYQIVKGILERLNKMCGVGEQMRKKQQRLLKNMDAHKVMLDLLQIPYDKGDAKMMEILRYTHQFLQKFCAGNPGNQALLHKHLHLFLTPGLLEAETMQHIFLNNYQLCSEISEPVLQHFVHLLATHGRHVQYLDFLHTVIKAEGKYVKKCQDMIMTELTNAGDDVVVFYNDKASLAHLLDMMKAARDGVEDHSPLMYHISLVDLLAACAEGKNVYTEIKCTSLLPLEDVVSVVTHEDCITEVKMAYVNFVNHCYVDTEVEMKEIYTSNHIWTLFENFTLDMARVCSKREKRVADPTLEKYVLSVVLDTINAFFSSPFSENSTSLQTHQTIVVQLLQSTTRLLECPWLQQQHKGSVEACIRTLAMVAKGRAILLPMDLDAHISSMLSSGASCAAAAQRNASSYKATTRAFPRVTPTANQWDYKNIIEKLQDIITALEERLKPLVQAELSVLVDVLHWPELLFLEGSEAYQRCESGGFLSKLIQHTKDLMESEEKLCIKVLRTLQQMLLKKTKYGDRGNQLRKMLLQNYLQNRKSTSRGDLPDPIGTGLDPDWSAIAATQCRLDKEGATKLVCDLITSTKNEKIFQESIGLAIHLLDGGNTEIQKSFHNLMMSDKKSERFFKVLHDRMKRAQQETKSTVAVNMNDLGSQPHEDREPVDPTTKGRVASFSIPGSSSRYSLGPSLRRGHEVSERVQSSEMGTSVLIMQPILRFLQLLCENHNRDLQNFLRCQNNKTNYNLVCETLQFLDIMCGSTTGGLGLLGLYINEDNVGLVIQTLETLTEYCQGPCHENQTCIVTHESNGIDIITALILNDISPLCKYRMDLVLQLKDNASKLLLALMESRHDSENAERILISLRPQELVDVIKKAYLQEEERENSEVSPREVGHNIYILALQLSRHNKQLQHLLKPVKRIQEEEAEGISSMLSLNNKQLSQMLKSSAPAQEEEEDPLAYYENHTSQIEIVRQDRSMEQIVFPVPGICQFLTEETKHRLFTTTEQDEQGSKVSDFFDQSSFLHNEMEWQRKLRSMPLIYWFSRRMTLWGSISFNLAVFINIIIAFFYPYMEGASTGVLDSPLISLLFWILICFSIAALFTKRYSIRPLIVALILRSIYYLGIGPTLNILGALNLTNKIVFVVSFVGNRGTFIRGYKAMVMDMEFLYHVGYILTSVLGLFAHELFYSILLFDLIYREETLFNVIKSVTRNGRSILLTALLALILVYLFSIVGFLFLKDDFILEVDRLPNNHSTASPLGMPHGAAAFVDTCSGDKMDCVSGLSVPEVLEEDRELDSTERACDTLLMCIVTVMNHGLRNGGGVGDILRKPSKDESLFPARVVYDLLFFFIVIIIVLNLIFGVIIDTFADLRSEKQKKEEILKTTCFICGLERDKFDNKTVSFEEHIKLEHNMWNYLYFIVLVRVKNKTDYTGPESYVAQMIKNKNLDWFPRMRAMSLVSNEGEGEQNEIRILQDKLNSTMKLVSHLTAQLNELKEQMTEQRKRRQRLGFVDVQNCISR

Compound	potentiation of UTP-elicited Ca2+ increase, ITPR3-only cells (ITPR3)	potentiation of UTP effect on PLC activity, lower UTP concentration (PLC)	potentiation of UTP effect on PLC activity, higher UTP concentration (PLC)	transepithelial Cl- current elicited by apical UTP (TMEM16A)
CCc1cc(-c2cc(NCCCOc3ccccc3C)nc(N)n2)n(C)n1 [ARN7149, 6-(3-Ethyl-1-methyl-1H-pyrazol-5-yl)-N^4-(3-(o-tolyloxy)propyl)pyrimidine-2,4-diamine]	always effective	significantly potentiated	effective	significantly enhanced
CCn1nc2c(c1C(=O)Nc1ccccc1OCC1CCCCO1)CCCC2 (centres unmarked) [ARN11391, 2-Ethyl-N-[2-(tetrahydropyran-2-ylmethoxy)phenyl]-4,5,6,7-tetrahydroindazole-3-carboxamide]	only effective in cells with ITPR1	–	effective	significantly enhanced
OCc1ccccc1CN(Cc1ccnc(N2CCCC2)n1)c1ccc(F)cc1 [ARN4550, [2-[[4-Fluoro-N-[(2-pyrrolidin-1-ylpyrimidin-4-yl)methyl]anilino]methyl]phenyl]methanol]	always effective	significantly potentiated	effective	significantly enhanced
